The structures appear in SMILES notation. Like-named read-outs stand apart in the source and are kept apart here.

12 molecules from patent US4159328A, “Tetrahydro-1,3,5-thiadiazin-4-one derivative” (Nihon Nohyaku Co., Ltd., priority 1977, dated 1979) can be followed below.

The nature of one data set: mammalian acute toxicity. The note with it: mouse, in vivo, mice, male. As for the experimental part: For example, 2-t-butylimino-3-isopropyl-5-phenyltetrahydro-1,3,5-thiadiazin-4-one (compound No. 145) and 2-t-butylimino-3-isopropyl-5-p-tolyltetrahydro-1,3,5-thiadiazin-4-one (compound No. 318) have LD50 (mice, male) of 10,000 mg/kg or higher. Many other compounds of this invention have LD50 (mice, male) of 5,000 mg/kg or higher.

In data set [1] the test system is larvae of 28-spotted lady beetle (Epilachna vigintioctopunctana Fabricius). Nature of the data set: Test Example 8: insecticidal activity against larvae of 28-spotted lady beetle. The note with it: 120 h. It is filed as in vivo. Put shortly: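 Tomato leaflets dipped 30 s in 100 ppm test composition, air-dried, and placed in Petri dishes with seven second-instar larvae at 25° C. Mortality scored five days after treatment, two replicates.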

In data set [2] the test system is larvae of white-backed planthopper (Sogatella furcifera Horvath). Briefly: Test Example 2: insecticidal activity against larvae of white-backed planthopper. The format is in vivo. The note with it: 168 h. Summed up:
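Rice seedlings at 1.5-leaf stage were dipped 30 s in 400 ppm test composition, air-dried, and infested with five first-instar larvae. Tubes were held at 25°C, and mortality was scored at 7 days from triplicate tests.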

Data set [3] concerns 5th-instar larvae of brown planthopper. Nature of the data set: mortality in 7 days after spraying on 5th-instar larvae of brown planthopper. It is filed as in vivo. The settings on record: Nilaparvata lugens, 168 h; for mortality at 100 ppm: 5th-instar larvae, 7 days.
The subject of data set [4] is larvae of green rice leafhopper (Nephotettix cincticeps Uhler). Briefly: Test Example 5: activity against larvae of green rice leafhopper. It is filed as in vivo. The settings on record: 168 h. Put shortly: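 Rice seedlings at 1.5 leaf age dipped 30 seconds in 400 ppm test composition, air-dried, then infested with five second-instar larvae. Kept at 25° C; mortality scored seven days after treatment, three replicates.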

For data set [5], the system named is larvae of house mosquito (Culex pipiens pallens Coquillett). Nature of the data set: Test Example 6: insecticidal activity to larvae of house mosquito. It is filed as in vivo. The settings on record: 120 h. Summed up: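 Twenty first-instar Culex pipiens pallens larvae placed with feed in test composition diluted in deionized water to 10 ppm. Kept at 25 °C, and mortality counted five days after treatment.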

The subject of data set [6] is larvae of bug. (Togo hemipterus Scott). Nature of the data set: Test Example 9: insecticidal activity against larvae of bug. It is filed as in vivo. The note with it: 120 h. As for the experimental part: Insecticidal activity against larvae of bug. (Togo hemipterus Scott).
Test method: Into a glass tube (1.6 cm in internal diameter and 9 cm in length), was added 1 ml of a test composition in 10 ppm concentration just to moisten the absorbent cotton. Five rice seeds and five first-instar larvae were introduced into the glass tube and the tube end was covered with a piece of Japanese paper. The glass tube was kept in a constant temperature cabinet at 25° C. Five days after treatment, the dead-and-survival was inspected to calculate the mortality (3-replication test).

In data set [7] the test system is cirrus red mite (Panonychus citri McGregor). Nature of the data set: Test Example 4: activity to citrus red mite (Rothamstead method). The format is in vivo. The arrangement: concentration or dose not given beside the values. The note with it: two days after treatment, 25° C.; 2880 min. As for the experimental part: Activity to cirrus red mite (Panonychus citri McGregor).
Testing method: The test was performed by Rothamstead method. A test composition was sprayed by means of a spray gun over grapefruit leaves infested with citrus red mites. After air-drying the grapefruit was left standing in a constant temperature cabinet at 25° C. Two days after the treatment, the number of survived mites was counted to calculate the mortality.

The subject of data set [8] is two-spotted spider mite (Tetranychus urticae Koch). Briefly: Test Example 3: activity to two-spotted spider mite. The format is in vivo. The note with it: 120 h, 1,000 ppm, 5 days after treatment. From the text: Activity to two-spotted spider mite (Tetranychus urticae Koch).
Testing method: Two-spotted spider mites were set free on the pot-planted soybean in a greenhouse. On the next day, a test composition of 1,000 ppm concentration was sprayed over the soybean by means of a spray gun. Two days or five days after the treatment, dead-and-survival was inspected to calculate the mortality.

Data set [9] concerns adult rust-red-flour beetle (Tribolium castaneum Herbst). Nature of the data set: Test Example 7: insecticidal activity to adult rust-red-flour beetle. It is filed as in vivo. As for the experimental part:
Insecticidal activity to adult rust-red-flour beetle (Tribolium castaneum Herbst).
Testing method: Into a 9-cm Petri dish covered on the bottom with a piece of filter paper, was introduced 7 ml of a test composition of 400 ppm concentration. Ten adult rust-red flour beetles were released in the Petri dish and left standing in a constant temperature cabinet at 25° C. After 24 hours, the dead-and-survival was inspected to calculate the mortality.

Data set [10] deals with larvae of brown planthopper (Nilaparvata lugens Stahl). Nature of the data set: Test Example 1: insecticidal activity against larvae of brown planthopper. It is filed as in vivo. The settings on record: 120 h, third-instar larvae, 25° C., 5 days after treatment. Summed up: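 Rice seedlings at 1.5-leaf stage were dipped for 30 s in a 400 ppm test composition, air-dried, and infested with third-instar N. lugens larvae. After holding at 25 °C, mortality was scored 5 or 7 days post-treatment from three replicates.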

Data set [11] deals with larvae of diamond-back moth (Plutilla xylostella Linn'e). Briefly: Test Example 10: insecticidal activity against larvae of diamond-back moth. The format is in vivo. The settings on record: 400 ppm, first-instar larvae, three days; 4320 min. From the text: Insecticidal activity against larvae of diamond-back moth (Plutilla xylostella Linn'e). Testing method: A test composition of 400 ppm concentration was sprayed over the pot-planted chinese cabbage in a greenhouse by means of a spray gun. After air-drying, the chinese cabbage was infested with 10 first-instar larvae of diamond-back moth and was left standing in the greenhouse. Three days after the treatment, the dead-and-survival was inspected to calculate the mortality (3-replication test).

Setting [12] is: 400 ppm, adults, 25° C., 24 hours, read-out: Mortality.
[13] abbreviates: 10 ppm, first-instar larvae, 25° C., five days, read-out: Mortality.
Setting [14] is: 400 ppm, first-instar larvae, 25° C., seven days after treatment, read-out: Mortality.
The mark [15] stands for this setting: 400 ppm, second-instar larvae, 25° C., seven days after treatment, read-out: Mortality.

As for `CC(C)N1C(=O)N(c2ccccc2)CSC1=NC(C)(C)C` [Compound 145, 2-t-Butylimino-3-isopropyl-5-phenyl-tetrahydro-1,3,5-thiadiazin-4-one], in the data set “mammalian acute toxicity”, the LD50 was no less than 10000 mg/kg. For the same molecule, the mortality at 100 ppm in data set [1] and in data set [3] was 100% throughout. The mortality at 400 ppm in data set [2] and in data set [4] was 100% in each case. Moreover, the mortality at 10 ppm in data set [5] and in data set [6] was 100% in each case. In addition, in [7], the Mortality is 100%.
`CN=C1SCN(c2cccc(Cl)c2)C(=O)N1C` [Compound 213] gave a mortality at 1000 ppm in data set [8] of 100%. The mortality at 400 ppm in data set [9] (setting [12]) and in data set [10] was 100% throughout. The mortality at 10 ppm in [5] was 100%.
In data set [8], `CCN1C(=O)N(c2cccc(Cl)c2)CSC1=NC(C)(C)C` [Compound 216, 2-t-Butylimino-3-ethyl-5-(m-chlorophenyl)-tetrahydro-1,3,5-thiadiazin-4-one] came in with a mortality at 1000 ppm of 70%. Besides, the mortality at 400 ppm in data set [9] (setting [12]) and in [10] was 100% throughout. In addition, the mortality at 10 ppm in data set [6] (setting [13]) came out at 100%.
For `C=CCN1C(=O)N(c2cccc(Cl)c2)CSC1=NC(C)C` [Compound 217, 2-Isopropylimino-3-allyl-5-(m-chlorophenyl)-tetrahydro-1,3,5-thiadiazin-4-one], the mortality at 1000 ppm in [8] turned out to be 100%. Also, the mortality at 400 ppm in data set [9] (setting [12]) and in data set [10] was 100% in each case. Further, in data set [6] (setting [13]), the mortality at 10 ppm stood at 100%.
For the molecule `C=CCN1C(=O)N(c2cccc(Cl)c2)CSC1=NC(C)(C)C` [Compound 218], the mortality at 1000 ppm in data set [8] was 100%. Moreover, the mortality at 400 ppm in data set [9] (setting [12]) and in [10] was 100% throughout. The molecule also displayed a mortality at 10 ppm in data set [5] of 100%. In [7], this molecule displayed a Mortality of 100%.
On to `C=CCN1C(=O)N(c2cccc(Cl)c2)CSC1=NCc1ccccc1` [Compound 219], for which the Mortality in [11] was 80%; in [7] it was 100%. For the same molecule, the mortality at 1000 ppm in data set [8] came to 70%. Moreover, the mortality at 400 ppm in data set [9] (24 h) and in [10] was 100% each time.
`CC(C)N1C(=O)N(c2cccc(Cl)c2)CSC1=NC(C)(C)CC(C)(C)C` [Compound 222] showed a mortality at 1000 ppm in data set [8] of 80%. Also, the mortality at 400 ppm in [9] (setting [12]) and in data set [10] was 100% throughout. The mortality at 10 ppm in [6] (setting [13]) was determined as 100%.
Turning to `CC(C)CN1C(=O)N(c2cccc(Cl)c2)CSC1=NC(C)(C)C` [Compound 223], the mortality at 1000 ppm in data set [8] worked out at 70%. Also, the mortality at 400 ppm in [9] (setting [12]) and in data set [10] was 100% each time. Also, the mortality at 10 ppm in data set [5] came out at 100%.
For the molecule `CCC(C)N=C1SCN(c2cccc(Cl)c2)C(=O)N1C(C)CC` (stereo not drawn) [Compound 224], in [8], the mortality at 1000 ppm was determined as 100%. Also, the mortality at 400 ppm in data set [2] (setting [14]), in [9] (setting [12]), in data set [4] (setting [15]) and in data set [10] was 100% throughout. Moreover, in data set [5], the mortality at 10 ppm was found to be 100%.
For `Cc1ccc(N2CSC(=NC(C)(C)C)N(C(C)C)C2=O)cc1` [Compound 318, 2-t-Butylimino-3-isopropyl-5-(p-tolyl)-tetrahydro-1,3,5-thiadiazin-4-one], the LD50 in the data set “mammalian acute toxicity” was no less than 10000 mg/kg. For the same molecule, the mortality at 100 ppm in [1] and in data set [3] was 100% throughout. In addition, the mortality at 1000 ppm in data set [8] amounted to 100%. Also, the mortality at 400 ppm in [2] (setting [14]), in [4] (setting [15]) and in [10] was 100% each time. Further, the mortality at 10 ppm in data set [5] came to 90%.
In data set [11], `CCC(C)N=C1SCN(c2cccc(C)c2)C(=O)N1C(C)CC` (stereo not drawn) [Compound 327] gave a Mortality of 100%. In data set [1], this molecule showed a mortality at 100 ppm of 100%. The molecule also returned a mortality at 1000 ppm in data set [8] of 100%. Further, the mortality at 400 ppm in [2] (setting [14]), in data set [4] (setting [15]) and in data set [10] was 100% throughout. Besides, in data set [5], the mortality at 10 ppm stood at 90%.
Take `CNC(=O)Oc1cccc2ccccc12` [NAC, 1-naphthyl N-methylcarbamate, reference compound]: the mortality at 200 ppm in data set [3] (read-out: mortality in 7 days after spraying) was determined as 30%.

The term LD50 denotes the dose at which mortality reaches 50%. The mortality is the percentage killed.
